Laboratory results reported in patent US9708338B2, “Aromatic heterocyclylamine derivative having TRPV4-inhibiting activity” (Shionogi & Co., Ltd., priority 2013, dated 2017).

Biological target: T1, human TRPV4 (Homo sapiens, UniProt Q9HBA0)
T1 construct: expressed in transfected cells; host or cells: CHO-K1
T1 sequence (Q9HBA0 whole entry): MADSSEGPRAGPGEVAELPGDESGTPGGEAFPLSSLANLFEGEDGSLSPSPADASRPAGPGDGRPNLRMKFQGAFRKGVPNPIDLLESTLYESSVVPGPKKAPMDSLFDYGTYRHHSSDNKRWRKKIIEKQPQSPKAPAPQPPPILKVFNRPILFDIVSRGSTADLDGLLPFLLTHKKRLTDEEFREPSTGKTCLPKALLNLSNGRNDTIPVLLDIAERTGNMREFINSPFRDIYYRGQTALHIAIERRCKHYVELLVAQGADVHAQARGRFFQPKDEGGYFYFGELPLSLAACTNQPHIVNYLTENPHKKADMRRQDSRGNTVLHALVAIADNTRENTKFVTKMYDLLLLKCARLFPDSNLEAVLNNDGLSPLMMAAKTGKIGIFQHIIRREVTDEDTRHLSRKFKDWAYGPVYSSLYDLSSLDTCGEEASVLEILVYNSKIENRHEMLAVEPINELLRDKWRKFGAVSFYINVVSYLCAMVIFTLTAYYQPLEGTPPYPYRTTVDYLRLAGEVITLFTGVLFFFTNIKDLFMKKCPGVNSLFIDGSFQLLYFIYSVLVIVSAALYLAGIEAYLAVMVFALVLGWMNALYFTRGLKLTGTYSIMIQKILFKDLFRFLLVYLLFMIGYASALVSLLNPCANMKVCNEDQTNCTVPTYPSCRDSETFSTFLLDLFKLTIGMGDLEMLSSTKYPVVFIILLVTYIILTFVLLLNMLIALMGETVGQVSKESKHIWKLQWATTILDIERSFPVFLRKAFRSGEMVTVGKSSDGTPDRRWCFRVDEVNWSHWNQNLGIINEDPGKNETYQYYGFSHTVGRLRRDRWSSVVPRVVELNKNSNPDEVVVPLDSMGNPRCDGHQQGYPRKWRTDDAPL
Experiment: Test Example 1 Measurement of TRPV4 inhibitory activity (IC50 value)
Type: cell-based
Details: CHO-K1 cells stably expressing human TRPV4; Fluo 4-AM, FLIPR TETRA; final 1 μmol/L 4α-PDD
Method: (§1) For each compound, TRPV4 inhibitory activity was measured using cells. (Method) TRPV4 inhibitory activity of the compound was evaluated in accordance with the following procedure.
(§2) (1) The TRPV4 inhibitory activity was measured using CHO-K1 cells stably expressing human TRPV4.
(2) In the day before the experimental day, frozen cell were thawed and washed with the culture medium (MEM-α, 10% FBS, 2 mmol/L GlutaMax, 50 unit Penicillin, 50 μg/mL Streptomycin, 20 mmol/L HEPES). Then cells were suspended in the culture medium.
(3) The 384-well plates which hTRPV4/CHO cells were seeded at densities of 4000 cells/well in the culture medium and cultured in a CO2 incubator in the presence of 5% CO2 at 37° C. for overnight was used as assay plates.
(4) The assay plate was washed with assay buffer (Hanks, 20 mmol/L HEPES, 2.5 mmol/L probenecid, pH 7.4), and the buffer were remained at 20 μL/well.
(5) 10 μl of dye loading buffer (9 μmol/L Fluo 4-AM, 0.09% Pluronic F-127/assay buffer) was added to each well, then the assay plate was incubated in a CO2 incubator in the presence of 5% CO2 at 37° C. for one hour (final 3 μmol/L Fluo4-AM).
(6) The assay plate was washed with the assay buffer, and the buffers were remained at 20 μL/well. Then the assay plate was incubated for 10 min at room temperature.
(7) 20 μL/well of diluted compound solution was dispensed to each well in the compound plate, and mixed with built-in Pipette and Mixer of the Fluorescence analysis system FLIPR TETRA (Molecular devices).
(8) After incubation for 5 min, 20 μL/well of 4α-PDD solution were applied to each well of assay plate and mixed with the FLIPR TETRA (final 1 μmol/L 4α-PDD).
(9) The fluorescent intensity was measured with FLIPR TETRA system for 5 min from the point of time addition the compound solution, at Ex 470-495 nm, Em 515-575 nm wavelength.
(§3) In addition, TRPV4 inhibitory activity (IC50 value) of a compound was evaluated according to the following procedure.
(§4) (10) In the presence of the compound, the difference between maximal and minimal of fluorescent intensity value for 5 min from just before addition of 4α-PDD solution was calculated, and it was referred as Max−Min value. Max−Min value of the compound A at 1 μmol/L was defined as 100% inhibitory activity, Max−Min value in the absence of the compound was defined as 0% inhibitory activity. The TRPV4 inhibitory activity of the compound was calculated by the following formula. Inhibition ratio=(1−(Max−Min value of the compound−100% inhibitory activity)/(0% inhibitory activity−100% inhibitory activity))×100
Herein, the compound A is the compound I-186 described in PCT/JP2013/058722.
(11) Inhibitory activity was calculated at 10 points with three fold serial dilution, in the final concentration of the compound from 10 μmol/L to 0.5 nmol/L, the IC50 value (nmol/L) was calculated by logistic approximation method.
For `Cc1nc(C(C)O)sc1-c1csc(Nc2ccc(CCOc3ccc(Cl)cc3F)cn2)n1` (centres unmarked) [Compound I-6], the IC50 was 52 nM. In the case of `Cc1nc([C@H](C)O)sc1-c1csc(Nc2ccc3c(n2)CCCC3Nc2ccc(Cl)cc2F)n1` (some centres unmarked) [Compound I-10], the IC50 is reported as 14 nM. In the case of `Cc1nc(C)c(-c2csc(Nc3ccc(C(=O)Cc4ccc(Cl)cc4)cn3)n2)s1` [Compound I-13], the IC50 is reported as 6.4 nM. With `Cc1nc(C)c(-c2csc(Nc3ccc(S(=O)(=O)Cc4ccc(Cl)cc4)cn3)n2)s1` [Compound I-17] the IC50 was 37 nM. In the case of `Cc1nc(C)c(-c2c[nH]c(Nc3ccc(CNc4ccc(Cl)cc4F)cn3)n2)s1` [Compound I-41], the IC50 is reported as 42 nM. For `Cc1nc(C)c(-c2csc(Nc3ccc(CNc4ccc(Cl)cc4F)cn3)n2)o1` [Compound I-43], the IC50 was 39 nM. For `Cc1nc([C@H](C)O)sc1-c1csc(Nc2ccc(COC(C(F)(F)F)C(F)(F)F)cn2)n1` [Compound I-45], the IC50 was 8.1 nM. With `CC(=O)N(Cc1ccc(Nc2nc(-c3sc(C)nc3C)cs2)nc1)c1ccc(Cl)cc1F` [Compound I-49] the IC50 was 8.6 nM. Molecule `Cc1nc(C)c(-c2csc(Nc3ccc(/C=C/c4ccc(Cl)cc4)cn3)n2)s1` [Compound I-54] has an IC50 of 27 nM. Molecule `CC(O)c1nc(CCO)c(-c2csc(Nc3ccc(CNc4ccc(Cl)cc4F)cn3)n2)s1` (centres unmarked) [Compound I-79] has an IC50 of 27 nM. Molecule `CO[C@H]1C[C@H]2CC[C@@H](C1)N2C(=O)c1ccc(Nc2nc(-c3sc(C(N)=O)nc3C)cs2)nc1` [Compound I-118] has an IC50 of 9.1 nM. With `CC(O)c1nc(CC#N)c(-c2csc(Nc3ccc(CNc4ccc(Cl)cc4F)cn3)n2)s1` (centres unmarked) [Compound I-132] the IC50 was 14 nM. `Cc1nc(C(C)O)sc1-c1csc(Nc2ccc(C(=O)Nc3ccc(C#N)cc3F)cn2)n1` (centres unmarked) [Compound I-134] showed an IC50 of 6.8 nM. `Cc1nc(C(C)O)sc1-c1csc(Nc2ccc(OC(F)(F)F)cn2)n1` (centres unmarked) [Compound I-140] showed an IC50 of 42 nM. In the case of `Cc1nc(C(C)O)sc1-c1csc(Nc2ccc(CCNc3ccc(Cl)cc3F)cn2)n1` (centres unmarked) [Compound I-150], the IC50 is reported as 30 nM. With `COCCN(Cc1ccc(Nc2nc(-c3sc(C)nc3C)cs2)nc1)c1ccc(Cl)cc1F` [Compound I-184] the IC50 was 4 nM. In the case of `Cc1nc(C)c(-c2csc(Nc3ccc(C(C)Nc4ccc(Cl)cc4)cn3)n2)s1` (centres unmarked) [Compound I-188], the IC50 is reported as 6.4 nM. Molecule `Cc1nc(C)c(-c2csc(Nc3ccc(CN(CC(C)C)c4ccc(Cl)cc4F)cn3)n2)s1` [Compound I-200] has an IC50 of 2.5 nM. `Cc1nc(C)c(-c2csc(Nc3ccc(CNC4(C(F)(F)F)CCCC4)cn3)n2)s1` [Compound I-228] gave an IC50 of 1.7 nM. For `Cc1nc(C)c(-c2csc(Nc3ccc(C(=O)Nc4cccnc4)cn3)n2)s1` [Compound I-257], the IC50 was 14 nM. `Cc1nc(C)c(-c2csc(Nc3ccc(C(=O)Nc4ccc(Oc5ccccc5)cc4)cn3)n2)s1` [Compound I-270] showed an IC50 of 26 nM. Work on `Cc1nc(C)c(-c2csc(Nc3ccc(C(=O)NC(C)(C)C(F)(F)F)cn3)n2)s1` [Compound I-274] yielded an IC50 of 3.3 nM. `Cc1nc(C)c(-c2csc(Nc3ccc(OCc4ccc(Cl)cc4)cn3)n2)s1` [Compound I-312] showed an IC50 of 24 nM.

Biological target: T1, human TRPV4
Experiment: Test Example 2 Measurement of TRPV4 inhibitory activity (IC50 value)
Type: cell-based
Details: CHO-K1 cells stably expressing human TRPV4; DMEM 10% FBS, 5000 cells/well; final 0.15 μmol/L 4α-PDD
Method: as §1, §2
(2) In the day before the experimental day, frozen cell were thawed and washed with the culture medium (DMEM, 10% FBS, 2 mmol/L GlutaMax, 50 unit Penicillin, 50 μg/mL Streptomycin, 0.1 mmol/L Non-Essential Amino Acids, 25 mmol/L HEPES). Then cells were suspended in the culture medium. (3) The 384-well plates which hTRPV4/CHO cells were seeded at densities of 5000 cells/well in the culture medium and cultured in a CO2 incubator in the presence of 5% CO2 at 37° C. for overnight was used as assay plates. (4) The assay plate was washed with assay buffer (Hanks, 20 mmol/L HEPES, 2.5 mmol/L probenecid, pH7.4), and the buffer were remained at 20 μL/well. (5) 10 μl of dye loading buffer (3 μmol/L Fluo 4-AM, 0.03% Pluronic F-127/assay buffer) was added to each well, then the assay plate was incubated in a CO2 incubator in the presence of 5% CO2 at 37° C. for one hour (final 1 μmol/L Fluo4-AM). (6) The assay plate was washed with the assay buffer, and the buffers were remained at 20 μL/well. Then the assay plate was incubated for 10 min at room temperature. (7) 20 μL/well of diluted compound solution was dispensed to each well in the compound plate, and mixed with built-in Pipette and Mixer of the Fluorescence analysis system FLIPR TETRA (Molecular devices). (8) After incubation for 5 min, 20 μL/well of 4α-PDD solution were applied to each well of assay plate and mixed with the FLIPR TETRA (final 0.15 μmol/L 4α-PDD). (9) The fluorescent intensity was measured with FLIPR TETRA system for 5 min from the point of time addition the […], at Ex 470-495 nm, Em 515-575 nm wavelength.
as §3
as §4, with “of the above compound A” for “of the compound A”, “inhibitory activity))×100 (11) Inhibitory activity was calculated at 10 points with three fold serial dilution, in the final concentration of the compound from 10 μmol/L to 0.5 nmol/L, the IC50 value (nmol/L) was calculated by logistic approximation method. (Result)” for “inhibitory activity))×100”
Molecule `CCN(CC)C(=O)N1C[C@H]2CC[C@@H](C1)N2C(=O)c1ccc(Nc2nc(-c3sc(C)nc3C)cs2)nc1` [Compound I-592] has an IC50 of 3.9 nM. Work on `Cc1nc(C)c(-c2csc(Nc3ccc(C(=O)N4[C@@H]5CC[C@H]4COC5)cn3)n2)s1` [Compound I-662] yielded an IC50 of 6.7 nM. In the case of `Cc1nc(C)c(-c2csc(Nc3ccc(C(=O)N4C[C@H]5CC[C@@H](C4)O5)cn3)n2)s1` [Compound I-703], the IC50 is reported as 13 nM. Molecule `CO[C@H]1C[C@H]2CC[C@@H](C1)N2C(=O)c1ccc(Nc2nc(-c3sc(C)nc3C)cs2)nc1` [Compound I-719] has an IC50 of 1.6 nM. With `Cc1nc(C)c(-c2csc(Nc3ccc(C(=O)N4[C@@H]5CC[C@H]4COC5)c(F)n3)n2)s1` [Compound I-744] the IC50 was 4.2 nM. With `Cc1nc(C)c(-c2csc(Nc3ccc(CN4[C@@H]5CC[C@H]4COC5)cn3)n2)s1` [Compound I-799] the IC50 was 6.3 nM. `Cc1nc(C)c(-c2csc(Nc3ccc(C(=O)N4CCOc5ccccc54)cn3)n2)s1` [Compound I-831] gave an IC50 of 2.9 nM. In the case of `Cc1nc(C)c(-c2csc(Nc3ccc(C(=O)N4[C@@H]5CC[C@H]4CSC5)cn3)n2)s1` [Compound I-843], the IC50 is reported as 2.6 nM.

Test system: not listed separately
Experiment: Test Example 7 Metabolism stability test
Type: in vitro ADME
Details: 0.5 μmol/L of test compound, human liver microsomes 0.5 mg protein/mL, 37° C.
Method: Using commercially available pooled human hepatic microsomes, a compound of the present invention was reacted for a constant time, and a remaining rate was calculated by comparing a reacted sample and an unreacted sample, thereby, a degree of metabolism in liver was assessed.
A reaction was performed (oxidative reaction) at 37° C. for 0 minute or 30 minutes in the presence of 1 mmol/L NADPH in 0.2 mL of a buffer (50 mmol/L Tris-HCl pH 7.4, 150 mmol/L potassium chloride, 10 mmol/L magnesium chloride) containing 0.5 mg protein/mL of human liver microsomes. After the reaction, 50 μL of the reaction solution was added to 100 μL of a methanol/acetonitrile=1/1 (v/v), mixed and centrifuged at 3000 rpm for 15 minutes. The compound of the present invention in the supernatant was quantified by LC/MS/MS, and a remaining amount of the compound of the present invention after the reaction was calculated, letting a compound amount at 0 minute reaction time to be 100%. Hydrolysis reaction was performed in the absence of NADPH and glucuronidation reaction was in the presence of 5 mmol/L UDP-glucuronic acid in place of NADPH, followed by similar operations. (Result) % inhibition was shown at 0.5 μmol/L of test compound.
In the case of `CC(O)c1nc(C(O)CO)c(-c2csc(Nc3ccc(CNc4ccc(Cl)cc4F)cn3)n2)s1` (centres unmarked) [Compound I-69], the “Percent of compound remaining after 30 min incubation” value is reported as 106%.
